Results as given in ChEMBL document CHEMBL5352446, “Synthesis and biological evaluation of a novel c-Myc inhibitor against colorectal cancer via blocking c-Myc/Max heterodimerization and disturbing its DNA binding” (Eur J Med Chem, 2022).
pIC50: −log10 of the molar value. Activity calls are given as the source filed them. The rule behind the calls is not given here.

Columns and labels:
[1] = Toxicity in BALB/c mouse xenografted with human HT-29 cells assessed as heart damage at 40 to 80 mg/kg, ip measured after 21 days by H and E staining based assay; assay type: organism-based; settings: in vivo, 504 h, dose 40-80 mg/kg, time 21 day
[2] = tested on: HT-29; experiment: Induction of apoptosis in human HT-29 cells assessed as late apoptotic cells at 1.25 uM incubated for 24 hrs by FITC Annexin-V and PI staining based flow cytometry analysis (reference value: 0.78%); assay type: functional
[3] = organism: Homo sapiens; experiment: Inhibition of human c-Myc (353 to 439 residues)/Max(S) (151 residues) expressed in Escherichia coli BL21(DE3) binding to biotinylated double-stranded DNA oligonucleotide 5'-CACCCGGTCACTGGCCTACAC-3' (unknown origin) at 20 uM preincubated for 90 mins followed by oligonucleotide addition for 25 mins by EMSA; settings: time 115.0 min
[4] = tested on: HT-29; experiment: Induction of apoptosis in human HT-29 cells assessed as necrotic cells at 2.5 uM incubated for 24 hrs by FITC Annexin-V and PI staining based flow cytometry analysis (reference value: 0.13%); assay type: functional
[5] = tested on: HT-29; experiment: Induction of cell cycle arrest in human HT-29 cells assessed as accumulation of cells at S phase at 1.25 uM incubated for 24 hrs by propidium iodide staining based flow cytometry analysis (reference value: 12.01 %); assay type: functional
[6] = tested on: HT-29; experiment: Induction of cell cycle arrest in human HT-29 cells assessed as accumulation of cells at G1 phase at 0.625 uM incubated for 24 hrs by propidium iodide staining based flow cytometry analysis (reference value: 65.37 %); assay type: functional
[7] = tested on: HT-29; experiment: Induction of apoptosis in human HT-29 cells assessed as necrotic cells at 1.25 uM incubated for 24 hrs by FITC Annexin-V and PI staining based flow cytometry analysis (reference value: 0.13%); assay type: functional
[8] = tested on: HT-29; experiment: Downregulation of c-Myc expression in human HT-29 cells at 10 uM incubated for 24 hrs by Western blot analysis; assay type: functional, cell-based
[9] = tested on: HCT-8; experiment: Antiproliferative activity against human HCT-8 cells incubated for 72 hrs by MTT assay; assay type: functional, cell-based; settings: HCT-8, 72 h
[10] = tested on: HT-29; experiment: Potency index, ratio of 5-Fu IC50 to test compound IC50 for antiproliferative activity against human HT-29 cells; assay type: functional
[11] = tested on: HT-29; experiment: Induction of cell cycle arrest in human HT-29 cells assessed as accumulation of cells at G1 phase at 1.25 uM incubated for 24 hrs by propidium iodide staining based flow cytometry analysis (reference value: 65.37 %); assay type: functional
[12] = tested on: HT-29; experiment: Antitumor activity against human HT-29 cells xenografted in BALB/c mouse assessed as tumor growth inhibition at 80 mg/kg, ip administered daily for 3 weeks by caliper method; assay type: functional; settings: HT-29, 504 h, read-out: TGI
[13] = tested on: HT-29; experiment: Induction of cell cycle arrest in human HT-29 cells assessed as accumulation of cells at S phase at 2.5 uM incubated for 24 hrs by propidium iodide staining based flow cytometry analysis (reference value: 12.01 %); assay type: functional
[14] = organism: Homo sapiens; experiment: Inhibition of human Myc (353 to 439 residues)/Max(S) (151 residues) expressed in Escherichia coli BL21(DE3) binding to biotinylated double-stranded DNA oligonucleotide 5'-CACCCGGTCACTGGCCTACAC-3' (unknown origin) preincubated for 90 mins followed by oligonucleotide addition for 25 mins by EMSA; settings: time 115.0 min
[15] = tested on: HT-29; experiment: Induction of cell cycle arrest in human HT-29 cells assessed as accumulation of cells at S phase at 5 uM incubated for 24 hrs by propidium iodide staining based flow cytometry analysis (reference value: 12.01 %); assay type: functional
[16] = tested on: HT-29; experiment: Antitumor activity against human HT-29 cells xenografted in ip dosed BALB/c mouse assessed as tumor growth inhibition administered daily for 3 weeks by caliper method; assay type: functional, organism-based; settings: dose 40-80 mg/kg
[17] = tested on: HT-29; experiment: Induction of apoptosis in human HT-29 cells assessed as upregulation of cleaved caspase 9 expression incubated for 24 hrs by Western blot analysis; assay type: functional, cell-based; settings: dose 2.5-10 µM
[18] = tested on: HT-29; experiment: Induction of apoptosis in human HT-29 cells assessed as late apoptotic cells at 2.5 uM incubated for 24 hrs by FITC Annexin-V and PI staining based flow cytometry analysis (reference value: 0.78%); assay type: functional
[19] = tested on: HT-29; experiment: Induction of apoptosis in human HT-29 cells assessed as late apoptotic cells at 10 uM incubated for 24 hrs by FITC Annexin-V and PI staining based flow cytometry analysis (reference value: 0.78%); assay type: functional
[20] = tested on: HT-29; experiment: Downregulation of c-Myc expression in human […] cells incubated for 24 hrs by Western blot analysis; assay type: functional, cell-based; settings: dose 2.5-10 µM
[21] = tested on: HT-29; experiment: Antitumor activity against human HT-29 cells xenografted in BALB/c mouse assessed as tumor growth inhibition at 40 mg/kg, ip administered daily for 3 weeks by caliper method; assay type: functional; settings: HT-29, 504 h, read-out: TGI
[22] = tested on: HT-29; experiment: Induction of apoptosis in human HT-29 cells assessed as late apoptotic cells at 5 uM incubated for 24 hrs by FITC Annexin-V and PI staining based flow cytometry analysis (reference value: 0.78%); assay type: functional
[23] = tested on: HT-29; experiment: Induction of apoptosis in human HT-29 cells assessed as viable cells at 0.625 uM incubated for 24 hrs by FITC Annexin-V and PI staining based flow cytometry analysis (reference value: 96.94%); assay type: functional; settings: read-out: Activity
[24] = tested on: HT-29; experiment: Induction of cell cycle arrest in human HT-29 cells assessed as accumulation of cells at G1 phase at 5 uM incubated for 24 hrs by propidium iodide staining based flow cytometry analysis (reference value: 65.37 %); assay type: functional
[25] = tested on: HT-29; experiment: Inhibition of cell migration in human HT-29 cells incubated for 48 hrs by wound healing analysis; assay type: functional, cell-based
[26] = tested on: HT-29; experiment: Induction of cell cycle arrest in human HT-29 cells assessed as accumulation of cells at G2 phase at 0.625 uM incubated for 24 hrs by propidium iodide staining based flow cytometry analysis (reference value: 16.33 %); assay type: functional
[27] = tested on: HT-29; experiment: Induction of apoptosis in human HT-29 cells assessed as early apoptotic cells at 0.625 uM incubated for 24 hrs by FITC Annexin-V and PI staining based flow cytometry analysis (reference value: 2.15%); assay type: functional
[28] = Toxicity in BALB/c mouse xenografted with human HT-29 cells assessed as spleen damage at 40 to 80 mg/kg, ip measured after 21 days by H and E staining based assay; assay type: organism-based; settings: in vivo, 504 h, dose 40-80 mg/kg, time 21 day
[29] = tested on: HT-29; experiment: Induction of cell cycle arrest in human HT-29 cells assessed as accumulation of cells at S phase at 0.625 uM incubated for 24 hrs by propidium iodide staining based flow cytometry analysis (reference value: 12.01 %); assay type: functional
[30] = Toxicity in BALB/c mouse xenografted with human HT-29 cells assessed as kidney damage at 40 to 80 mg/kg, ip measured after 21 days by H and E staining based assay; assay type: organism-based; settings: in vivo, 504 h, dose 40-80 mg/kg, time 21 day
[31] = tested on: HCT-116; experiment: cells; settings: Homo sapiens, HCT-116, 72 h
Description: Antiproliferative activity against human HCT-116 cells incubated for 72 hrs by MTT assay

[32] = tested on: HT-29; experiment: Induction of apoptosis in human HT-29 cells assessed as viable cells at 1.25 uM incubated for 24 hrs by FITC Annexin-V and PI staining based flow cytometry analysis (reference value: 96.94%); assay type: functional; settings: read-out: Activity
[33] = tested on: HT-29; experiment: Induction of apoptosis in human HT-29 cells assessed as downregulation of Bcl-2 expression incubated for 24 hrs by Western blot analysis; assay type: functional, cell-based; settings: dose 2.5-10 µM

## COc1cc(Oc2ccc(Nc3ccc(CCCO)cc3)cc2)cc(OC)c1CNCCc1ccc(C(F)(F)F)cc1
[1]
  Activity: Non-Toxic
[2]
  Activity: 4.55%
[3]
  inhibition: 100%
[4]
  Activity: 3.95%
[5]
  Activity: 13.16%
[6]
  Activity: 71.78%
[7]
  Activity: 1.72%
[8]
  Activity: Active
[9]
  pIC50: 5.51
[10]
  Ratio IC50: 32
[11]
  Activity: 74.95%
[12]
  inhibition in vivo at 80 mg/kg: 78.4%
[13]
  Activity: 14.32%
[14]
  inhibition: Dose-Dependent Effect
[15]
  Activity: 12.16%
[16]
  Activity: Dose-Dependent Effect
[17]
  Activity: Dose-Dependent Effect
[18]
  Activity: 7.03%
[19]
  Activity: 13.52%
[20]
  Activity: Dose-Dependent Effect
[21]
  inhibition in vivo at 40 mg/kg: 65.5%
[22]
  Activity: 7.67%
[23]
  viability at 0.625 µM: 89.5%
[24]
  Activity: 76.86%
[25]
  inhibition: Active
[26]
  Activity: 11.95%
[27]
  Activity: 5.9%
[28]
  Activity: Non-Toxic
[29]
  Activity: 14.41%
[30]
  Activity: Non-Toxic
[31]
  pIC50: 6.19
[32]
  viability at 1.25 µM: 81%
[33]
  Activity: Dose-Dependent Effect
